Measured values from the NIST ThermoML archive (doi:10.1021/acs.jced.8b00157).
Where “and” joins values, the source holds several entries; their conditions need not be identical. Equal values may be shown once.

Test: an = ratio of the nth substance listed
Details: 100 kPa, Liquid, Buoyancy - hydrostatic balance

[F][Al]([F])[F] [aluminum fluoride] + [F-].[K+]
mass density
Details	a2 = 1.3	a2 = 1.5
1039.4 K	1799 kg/m3	–
1039.6 K	1795 kg/m3	–
1039.8 K	1795 kg/m3	–
1039.9 K	1798 kg/m3	–
1040.1 K	1795 kg/m3	–
1040.4 K	1795 kg/m3	–
1040.6 K	1798 kg/m3 and 1795 kg/m3	–
1040.8 K	1798 kg/m3	–
1040.9 K	1797 kg/m3	–
1041 K	1796 kg/m3 and 1797 kg/m3	–
1041.2 K	1795 kg/m3	–
1042.1 K	1796 kg/m3	–
1042.3 K	1794 kg/m3	–
1042.5 K	1796 kg/m3	–
1042.8 K	1793 kg/m3 and 1794 kg/m3	–
1042.9 K	1792 kg/m3 and 1794 kg/m3	–
1043 K	1793 kg/m3	–
1043.1 K	1795 kg/m3	–
1043.4 K	1795 kg/m3	–
1043.7 K	1795 kg/m3	–
1043.8 K	1794 kg/m3	–
1043.9 K	1794 kg/m3 and 1791 kg/m3	–
1044.3 K	1791 kg/m3	–
1044.4 K	1791 kg/m3	–
1045 K	1793 kg/m3	–
1045.3 K	1793 kg/m3 and 1790 kg/m3	–
1045.4 K	1789 kg/m3	–
1045.6 K	1792 kg/m3	–
1045.8 K	1793 kg/m3	–
1046.1 K	1793 kg/m3	–
1046.3 K	1789 kg/m3	–
1046.5 K	1789 kg/m3	–
1046.7 K	1792 kg/m3 and 1789 kg/m3	–
1046.9 K	1789 kg/m3	–
1047 K	1789 kg/m3	–
1047.3 K	1792 kg/m3	–
1047.4 K	1791 kg/m3	–
1047.6 K	1791 kg/m3	–
1048 K	1791 kg/m3	–
1048.1 K	1788 kg/m3	–
1048.4 K	1786 kg/m3	–
1048.6 K	1790 kg/m3 and 1786 kg/m3	–
1048.8 K	1788 kg/m3	–
1049.4 K	1789 kg/m3	–
1049.5 K	1789 kg/m3	–
1049.6 K	1786 kg/m3	–
1049.7 K	1785 kg/m3	–
1049.9 K	1789 kg/m3	–
1050.5 K	1788 kg/m3 and 1785 kg/m3	–
1050.6 K	1784 kg/m3	–
1051.2 K	1787 kg/m3	–
1051.3 K	1787 kg/m3	–
1051.5 K	1787 kg/m3 and 1783 kg/m3 and 1784 kg/m3	–
1051.6 K	1787 kg/m3 and 1782 kg/m3	–
1052 K	1783 kg/m3	–
1052.2 K	1786 kg/m3 and 1782 kg/m3	–
1052.7 K	1786 kg/m3	–
1053.2 K	1782 kg/m3	–
1053.4 K	1786 kg/m3	–
1053.5 K	1786 kg/m3	–
1053.7 K	1786 kg/m3	–
1053.9 K	1782 kg/m3	–
1054.4 K	1785 kg/m3	–
1054.7 K	1784 kg/m3	–
1055.3 K	1784 kg/m3	–
1055.6 K	1784 kg/m3	–
1056 K	1784 kg/m3	–
1056.1 K	1783 kg/m3	–
1056.3 K	1783 kg/m3	–
1056.4 K	1783 kg/m3	–
1057.3 K	1782 kg/m3	–
1057.7 K	1782 kg/m3	–
1057.9 K	1781 kg/m3	–
1058.1 K	1781 kg/m3	–
1059.2 K	1781 kg/m3	–
1059.3 K	1780 kg/m3	–
1059.5 K	1780 kg/m3	–
1060.2 K	1779 kg/m3 and 1780 kg/m3	–
1060.5 K	–	1796 kg/m3
1060.8 K	–	1796 kg/m3
1061.1 K	1778 kg/m3	1796 kg/m3
1061.2 K	1779 kg/m3	–
1061.3 K	1778 kg/m3	–
1061.5 K	1779 kg/m3	–
1061.6 K	1777 kg/m3	1796 kg/m3
1061.9 K	–	1795 kg/m3
1062.2 K	–	1795 kg/m3
1062.5 K	–	1795 kg/m3
1062.8 K	1777 kg/m3	–
1062.9 K	–	1795 kg/m3
1063.2 K	1776 kg/m3 and 1777 kg/m3	–
1063.3 K	–	1794 kg/m3
1063.6 K	–	1794 kg/m3
1063.7 K	1776 kg/m3	–
1064.1 K	1775 kg/m3	1794 kg/m3
1064.4 K	–	1794 kg/m3
1064.6 K	1775 kg/m3	–
1064.7 K	–	1793 kg/m3
1065.2 K	–	1793 kg/m3
1065.3 K	1775 kg/m3	–
1065.5 K	–	1792 kg/m3
1065.8 K	1774 kg/m3	–
1066 K	1774 kg/m3	1792 kg/m3
1066.3 K	1775 kg/m3	–
1066.4 K	–	1792 kg/m3
1066.7 K	–	1792 kg/m3
1066.9 K	1774 kg/m3	–
1067 K	1773 kg/m3	–
1067.2 K	1773 kg/m3	1791 kg/m3
1067.4 K	–	1791 kg/m3
1067.7 K	1772 kg/m3	–
1067.9 K	–	1791 kg/m3
1068.2 K	–	1790 kg/m3
